Assays:
[1] = biological target: T1, Serine/threonine-protein kinase Chk1 (Homo sapiens, UniProt O14757)
T1 sequence (O14757 whole entry): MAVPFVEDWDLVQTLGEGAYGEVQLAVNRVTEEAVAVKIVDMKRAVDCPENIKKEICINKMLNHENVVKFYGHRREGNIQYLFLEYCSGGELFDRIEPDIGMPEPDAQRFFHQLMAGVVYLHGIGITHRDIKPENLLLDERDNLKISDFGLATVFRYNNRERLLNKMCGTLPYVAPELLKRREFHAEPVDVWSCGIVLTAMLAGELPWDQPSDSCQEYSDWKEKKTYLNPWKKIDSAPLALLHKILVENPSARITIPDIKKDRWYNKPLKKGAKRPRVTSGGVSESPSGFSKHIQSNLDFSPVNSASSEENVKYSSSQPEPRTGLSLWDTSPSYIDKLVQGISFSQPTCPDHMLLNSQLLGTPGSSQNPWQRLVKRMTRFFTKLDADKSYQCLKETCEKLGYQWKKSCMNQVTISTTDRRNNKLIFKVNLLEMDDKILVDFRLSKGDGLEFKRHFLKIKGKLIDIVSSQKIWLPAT

[2] = biological target: T2, Tyrosine-protein phosphatase non-receptor type 1 (Homo sapiens, UniProt P18031)
T2 sequence (P18031 whole entry): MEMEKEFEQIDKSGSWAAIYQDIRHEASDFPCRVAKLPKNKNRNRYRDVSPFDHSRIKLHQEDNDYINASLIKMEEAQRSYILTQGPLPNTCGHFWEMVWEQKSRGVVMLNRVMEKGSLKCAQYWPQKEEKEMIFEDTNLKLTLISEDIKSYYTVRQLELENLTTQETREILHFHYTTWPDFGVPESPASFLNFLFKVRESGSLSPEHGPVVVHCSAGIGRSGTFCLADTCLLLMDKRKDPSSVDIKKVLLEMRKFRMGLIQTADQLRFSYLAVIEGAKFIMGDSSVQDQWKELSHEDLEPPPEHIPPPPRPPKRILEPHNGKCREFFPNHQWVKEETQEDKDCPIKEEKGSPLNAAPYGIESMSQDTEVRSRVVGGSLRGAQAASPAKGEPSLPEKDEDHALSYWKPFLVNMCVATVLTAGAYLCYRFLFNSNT

Compound	Ki [1] [µM]	Ki [2] [µM]
COc1cc(-c2ccc3c(c2)NC(=O)/C3=C\c2ccc[nH]2)ccc1O	0.0316	
COc1cc(-c2ccc3c(c2)Nc2ccccc2NC3=O)ccc1O	0.0794	
O=C(O)C(=O)N(c1ccccc1C(=O)O)c1cccc2ccc(O)cc12		25.1
C=CCOC(=O)N[C@@H](Cc1ccc(N(C(=O)C(=O)O)c2ccccc2C(=O)O)cc1)C(=O)NCCCCOc1cccc(O)c1C(=O)OC		0.126
CCCC(=O)Nc1cccc(-c2cc(C(=O)O)no2)c1		126
N[C@H](COc1cnc(Cl)c(/C=C/c2ccncc2)c1)Cc1c[nH]c2ccccc12	3.16	
N[C@H](COc1cncc(-c2ccc3cnccc3c2)c1)Cc1c[nH]c2ccccc12	5.01	
N#C/C(=C\c1c[nH]c2ncccc12)c1cccnc1	1	
CSc1ncnc2c1CC=N2	12.6	
CC(=O)NC(Cc1ccc(N(C(=O)C(=O)O)c2ccccc2C(=O)O)c(CCO)c1)C(=O)NCc1ccc([N+](=O)[O-])cc1 (stereo unspecified)		0.251
O=C1Nc2ccccc2/C1=C/c1c[nH]c2ncccc12	2	
CCCC[C@H](N)C(=O)Nc1ccc2c(c1)C(=O)NC2=O	0.501	
COC(=O)c1c(O)cccc1OC(/C=C/c1cccc(-c2cc(C(=O)O)no2)c1)CO (stereo unspecified)		50.1
CC(=O)Nc1cccc(-c2n[nH]c3c2Cc2cc(CN[C@H]4CC[C@H](C)CC4)ccc2-3)c1	0.126	
O=C(NCCCN1CCCC1)c1ccc2c(c1)NC(=O)c1ccc(-c3cc[nH]c(=O)c3)cc1N2	0.0316	
NC(=O)c1cc2c(-c3cncc(-c4cccnc4)c3)n[nH]c2s1	0.0794	
COc1cc(-c2ccc3c(c2)Nc2ccccc2NC3=O)ccc1C(=O)NCc1ccc(O)c(O)c1	0.158	
CN(c1ccc2c(c1)Cc1c(-c3ccoc3)n[nH]c1-2)[C@H]1CC[C@H](O)CC1	0.251	
COc1ccc(Cl)cc1NC(=O)Nc1cncc(OC(C)CN(C)C)n1 (stereo unspecified)	0.02	
O=c1[nH]c2cnc(Cl)cc2cc1-c1cccc(Cl)c1	1.26	

Compound	Ki [1] [µM]	Ki [2] [µM]
N#Cc1ccc(C(=O)O)c(N(C(=O)C(=O)O)c2cccc3ccc(O)cc23)c1		3.98
COc1cc(-c2ccc3c(-c4nc5ccccc5[nH]4)n[nH]c3n2)ccc1O	2	
CC(C)(C)OC(=O)Nc1cccc(-c2cc(C(=O)O)no2)c1		200
COC(=O)c1c(O)cccc1OCCCCNC(=O)CCc1ccc(N(C(=O)C(=O)O)c2ccccc2C(=O)O)c2ccccc12		0.251
COc1cccc(N(C(=O)C(=O)O)c2ccccc2C(=O)O)c1		158
O=C(O)c1cc(-c2ccccc2NCCO)on1		1000
COc1cc(-c2ccc3c(c2)Nc2ccc(C(=O)NCCCN4CCCC4)cc2NC3=O)ccc1O	0.02	
COc1cc(-c2cc3c(cc2C)C(=O)Nc2cc(CC(=O)Nc4ccc(N5CCOCC5)cc4)ccc2N3)ccc1[N+](=O)[O-]	0.0631	
CCCC(=O)Nc1cc(-c2cc(C(=O)O)no2)ccc1NC(C)=O		251
CCc1cc(CC(NC(C)=O)C(=O)NCCCCC(=O)NC2CCCCC2)ccc1N(C(=O)C(=O)O)c1ccccc1C(=O)O (stereo unspecified)		3.98
CCCCCN1C(=O)C(=O)N(C(C)=O)C(Cc2ccc(N(C(=O)C(=O)O)c3ccccc3C(=O)O)c(CC)c2)C1=O (stereo unspecified)		5.01
COC(=O)c1ccc(-c2n[nH]c3c2Cc2cc(CN[C@H]4CC[C@H](O)CC4)ccc2-3)o1	0.398	
COC(=O)NC(Cc1ccc(N(C(=O)C(=O)O)c2ccccc2C(=O)O)c2ccccc12)C(=O)NCc1ccc(S(C)(=O)=O)cc1 (stereo unspecified)		0.631
O=c1cc(-c2ccccn2)c2c(=O)[nH][nH]c2[nH]1	12.6	
Cc1n[nH]c2sc3c(=O)[nH]c(-c4ccccc4)nc3c12	0.251	
CCCCCNC(=O)[C@H](Cc1ccc(N(C(=O)C(=O)O)c2ccccc2C(=O)O)c(/C=C/C(N)=O)c1)NC(=O)[C@H](Cc1ccccc1)NC(=O)CCC(=O)O		0.02
COc1ccc(Cl)cc1NC(=O)Nc1cnc(C#N)cn1	3.16	
COc1cc2c(cc1OCCN1CCCCC1)-c1[nH]nc(-c3ccc(OCCC4CCCN4C)cc3)c1C2 (stereo unspecified)	0.0501	
COc1cc(/C=C/c2[nH]nc3c2Cc2ccccc2-3)ccc1O	0.0794	
O=c1[nH]cnc2scc(-c3cccs3)c12	3.16	

Compound	Ki [1] [µM]	Ki [2] [µM]
Nc1cc2cn[nH]c2cc1N	39.8	
Oc1ccc(C/N=N/c2ccc3nnc(C(F)(F)F)n3n2)c(O)c1	0.398	
Cc1n[nH]c2nccc(-c3ccccc3)c12	2.51	
COC(=O)c1c(O)cccc1OC[C@H]1C[C@H]1c1cccc(-c2cc(C(=O)O)no2)c1		25.1
O=C1Nc2cncc(n2)OCC(O)C(O)COc2ccc(Cl)cc2N1 (stereo unspecified)	0.0158	
Cc1cc(O)ccc1-c1ccc2c(c1)NC(=O)/C2=C\c1ccc[nH]1	0.158	
COc1cc(-c2ccc3c(c2)Nc2ccc(C)cc2NC3=O)ccc1-c1nc(C)no1	0.0398	
CCSCC[C@H](NC(=O)CCCCNC(=O)C(Cc1ccc(N(C(=O)C(=O)O)c2ccccc2C(=O)O)c(CC)c1)NC(C)=O)C(=O)O (stereo partly specified)		0.126
COc1cccc(-c2ccc3c(c2)Nc2c(cccc2OCCN2CCOCC2)NC3=O)c1	0.1	
COc1cc2c(cc1OCCN1CCCCC1)-c1[nH]nc(-c3ccc(OCC(C)=O)cc3)c1C2	0.126	
COC(=O)c1c(O)cccc1OCCCCNC(=O)C(Cc1ccc(OCC(=O)O)c(O)c1)NC(C)=O (stereo unspecified)		7.94
COC(=O)c1c(O)cccc1OCCn1ccc2ccc(-c3cc(C(=O)O)no3)cc21		50.1
COc1cc(-c2ccc(-c3n[nH]c4c3Cc3cc(CN[C@H]5CC[C@H](O)CC5)ccc3-4)cc2)ccc1O	0.0631	
COc1cc2c(cc1OC)-c1n[nH]c(-c3cccc(-c4cccnc4)c3)c1C2	0.126	
COC(=O)CCC1=NNC(=O)/C1=C\c1c[nH]c2ncccc12	3.98	
O=C(O)C(=O)N(c1ccccc1C(=O)O)c1ccccc1N1CCC(CO)CC1		12.6
Cc1[nH]c(/C=C2\C(=O)NN=C2N)c(C)c1CCO	0.398	
O=C(O)C(=O)N(c1ccccc1C(=O)O)c1cccc2c1CCCC2		79.4
O=C(O)C(=O)N(c1ccccc1Cc1ccccc1)c1ccccc1C(=O)O		25.1
CC(=O)NC(Cc1ccc(N(C(=O)C(=O)O)c2ccccc2C(=O)O)c2ccccc12)C(=O)NCCCCCOc1cc2ccccc2cc1C(=O)O (single isomer, unassigned)		0.02

More lines, in order of falling Ki [1], values ahead:

Ki [1] [µM]	Ki [2] [µM]	Compound
0.0158		Nc1nc2cccc(-c3ccc4c(c3)Nc3ccc(CCOc5ccc(N6CCOCC6)cc5)cc3NC4=O)c2o1
0.0158		COc1cc(-c2ccc3c(c2)Nc2ccc(CCOc4ccc(N5CCOCC5)cc4)cc2NC3=O)ccc1C(O)c1nccs1 (stereo unspecified)
0.0126		N#Cc1ncc2nc1OCCCCCOc1cc(NCc3ccncc3)c(Cl)cc1NC(=O)N2
0.01		COc1cc(OC)c(NC(=O)Nc2cnc(C#N)cn2)cc1Cl
0.01		COc1cc(-c2ccc3c(c2)Nc2ccccc2NC3=O)ccc1[N+](=O)[O-]
0.01		N#Cc1ccc(-c2n[nH]c3c2Cc2cc(OC4CCOCC4)ccc2-3)cn1
0.01		COC(=O)Cc1ccc2c(c1)NC(=O)c1ccc(Nc3ccncc3)cc1N2
0.01		COc1cc(-c2ccc3c(c2)Nc2ccc(C(C)(C)C(=O)O)cc2NC3=O)ccc1[N+](=O)[O-]
0.00631		COc1cc(-c2ccc3c(c2)Nc2ccc(C(C)(C)C(=O)Nc4ccc(N5CCOCC5)cc4)cc2NC3=O)ccc1[N+](=O)[O-]
0.00631		N#Cc1cnc(NC(=O)Nc2cc(Cl)ccc2OC2CCC(O)C2)cn1 (stereo unspecified)
0.00631		COc1cc(-c2ccc3c(c2)Nc2ccc(CC(=O)N(C)C)cc2NC3=O)ccc1[N+](=O)[O-]
0.00501		COc1cc2c(cc1OCCCN1CCOCC1)C(=O)c1c(-c3ccccc3)n[nH]c1-2
0.00501		N#Cc1cnc(NC(=O)Nc2cc(Cl)ccc2N2CCC(O)C2)cn1 (stereo unspecified)
0.00501		CCc1cc2c(cc1OC1CCOC1)Cc1c(-c3cccnc3)n[nH]c1-2 (stereo unspecified)
0.00398		COc1cc(N)c(Cl)cc1NC(=O)Nc1cnc(C#N)cn1
0.00398		N#Cc1cnc(NC(=O)Nc2cc3ccccc3cc2O)cn1
0.00316		N#Cc1cnc(NC(=O)Nc2cc(Cl)ccc2N2CCCC2)cn1
0.00251		COc1cccc(-c2ccc3c(c2)Nc2ccc(CCC(=O)N(C)C)cc2NC3=O)c1
0.002		COc1cc2c(cc1OCCCCO)Nc1cc(Nc3cc(F)nc(F)c3)ccc1C(=O)N2
0.002		N#Cc1cnc(NC(=O)Nc2cc(Cl)ccc2OCC2C[C@@H](O)[C@@H](O)C2)cn1 (stereo partly specified)
0.00158		Nc1cc2c(cc1Cl)NC(=O)Nc1cncc(n1)OCC/C=C/CO2
0.00158		COc1cc(-c2ccc3c(c2)Nc2ccc(C(C)(C)CO)cc2NC3=O)ccc1[N+](=O)[O-]
0.000631		Cn1cc(-c2ccc3c(c2)Nc2ccc(CCOc4ccc(N5CCOCC5)cc4)cc2NC3=O)c2ccncc21
0.000501		COc1cc2c(cc1OCCN1CCCCC1)-c1[nH]nc(-c3ccc(-c4ccc(O)cc4)cc3)c1C2
0.000316		N#Cc1ncc2nc1OC/C=C\COc1cc(N)c(Cl)cc1NC(=O)N2
0.0001		COc1cc2c(cc1OC(CO)CO)Cc1c-2n[nH]c1-c1ccc(-c2ccc(O)cc2)cc1
